Measurements taken from PubChem BioAssay AID2060487 (Molecular Pharmacology Branch, DTP, NCI, 2025).
pIC50: −log10 of the molar value.

System: 997537-175-T-J1-PDC complex spheroid viability
Experiment: Anticancer human tumor 997537-175-T-J1-PDC patient-derived colon adenocarcinoma cell line growth inhibition [GQUAD]
Conditions: for pIC50: curve of first compound; for viability, T/C: stronger effect = lower value
In short: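 Multi-cell-type spheroids of tumor cells with HUVEC and mesenchymal stem cells, treated with drug combinations. Concentrations descend in half-log steps from near clinical Cmax, or from 10 microM where Cmax is unknown; viability read-out.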

[1] = second compound 0.0316 µM, first compound 0.0316 µM
[2] = second compound 0.0316 µM, first compound 0.1 µM
[3] = second compound 0.0316 µM, first compound 0.316 µM
[4] = second compound 0.0316 µM, first compound 1 µM
[5] = second compound 0.0316 µM, first compound 3.16 µM
[6] = second compound 0.0316 µM, first compound 10 µM
[7] = second compound 0.1 µM, first compound 0.0316 µM
[8] = second compound 0.1 µM, first compound 0.1 µM
[9] = second compound 0.1 µM, first compound 0.316 µM
[10] = second compound 0.1 µM, first compound 1 µM
[11] = second compound 0.1 µM, first compound 3.16 µM
[12] = second compound 0.1 µM, first compound 10 µM
[13] = second compound 0.316 µM, first compound 0.0316 µM
[14] = second compound 0.316 µM, first compound 0.1 µM
[15] = second compound 0.316 µM, first compound 0.316 µM
[16] = second compound 0.316 µM, first compound 1 µM
[17] = second compound 0.316 µM, first compound 3.16 µM
[18] = second compound 0.316 µM, first compound 10 µM
[19] = second compound 1 µM, first compound 0.0316 µM
[20] = second compound 1 µM, first compound 0.1 µM
[21] = second compound 1 µM, first compound 0.316 µM
[22] = second compound 1 µM, first compound 1 µM
[23] = second compound 1 µM, first compound 3.16 µM
[24] = second compound 1 µM, first compound 10 µM
[25] = second compound 3.16 µM, first compound 0.0316 µM
[26] = second compound 3.16 µM, first compound 0.1 µM
[27] = second compound 3.16 µM, first compound 0.316 µM
[28] = second compound 3.16 µM, first compound 1 µM
[29] = second compound 3.16 µM, first compound 3.16 µM
[30] = second compound 3.16 µM, first compound 10 µM
[31] = second compound 10 µM, first compound 0.0316 µM
[32] = second compound 10 µM, first compound 0.1 µM
[33] = second compound 10 µM, first compound 0.316 µM
[34] = second compound 10 µM, first compound 1 µM
[35] = second compound 10 µM, first compound 3.16 µM
[36] = second compound 10 µM, first compound 10 µM
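Also: spheroids exposed to the agents for 7 days.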
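For viability, T/C in this document: 100% = DMSO vehicle control viability.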

## CC1COCCN1c1cc(-c2ccnn2C)c2ccnc(-c3ccn[nH]3)c2n1 (stereo unspecified) + Cc1cnc(CNC(=O)c2c(=O)c3ccc(N4CCCN(C)CC4)nc3n3c2sc2ccccc23)cn1
Second compound 0.0316 µM
  pIC50: 6.83
Second compound 0.1 µM
  pIC50: 6.80
Second compound 0.316 µM
  pIC50: > 7.50
Second compound 1 µM
  pIC50: < 5.00
Second compound 3.16 µM
  pIC50: < 5.00
Second compound 10 µM
  pIC50: > 7.50
[1]
  viability, T/C: 80.7%
[2]
  viability, T/C: 54%
[3]
  viability, T/C: 37.4%
[4]
  viability, T/C: 33.7%
[5]
  viability, T/C: 43.5%
[6]
  viability, T/C: 53.1%
[7]
  viability, T/C: 65.9%
[8]
  viability, T/C: 53.8%
[9]
  viability, T/C: 48.4%
[10]
  viability, T/C: 29.8%
[11]
  viability, T/C: 51.7%
[12]
  viability, T/C: 55.2%
[13]
  viability, T/C: 52.7%
[14]
  viability, T/C: 39%
[15]
  viability, T/C: 34.8%
[16]
  viability, T/C: 37.6%
[17]
  viability, T/C: 48.5%
[18]
  viability, T/C: 45%
[19]
  viability, T/C: 55.3%
[20]
  viability, T/C: 58.5%
[21]
  viability, T/C: 67.5%
[22]
  viability, T/C: 57.5%
[23]
  viability, T/C: 58.2%
[24]
  viability, T/C: 51%
[25]
  viability, T/C: 63.1%
[26]
  viability, T/C: 63.7%
[27]
  viability, T/C: 48.5%
[28]
  viability, T/C: 67.5%
[29]
  viability, T/C: 57.8%
[30]
  viability, T/C: 48%
[31]
  viability, T/C: 43.1%
[32]
  viability, T/C: 52%
[33]
  viability, T/C: 66.7%
[34]
  viability, T/C: 54.9%
[35]
  viability, T/C: 39.8%
[36]
  viability, T/C: 63.3%

## CC1COCCN1c1cc(C2(O)CC3CCC(C2)O3)c2cnn(-c3ccn[nH]3)c2n1 (stereo unspecified) + Cc1cnc(CNC(=O)c2c(=O)c3ccc(N4CCCN(C)CC4)nc3n3c2sc2ccccc23)cn1
Second compound 0.0316 µM
  pIC50: 7.07
Second compound 0.1 µM
  pIC50: > 7.50
Second compound 0.316 µM
  pIC50: 7.09
Second compound 1 µM
  pIC50: > 7.50
Second compound 3.16 µM
  pIC50: < 5.00
Second compound 10 µM
  pIC50: 5.44
[1]
  viability, T/C: 64%
[2]
  viability, T/C: 52.9%
[3]
  viability, T/C: 33.3%
[4]
  viability, T/C: 38.8%
[5]
  viability, T/C: 42.9%
[6]
  viability, T/C: 44.8%
[7]
  viability, T/C: 51.1%
[8]
  viability, T/C: 49%
[9]
  viability, T/C: 37.5%
[10]
  viability, T/C: 27.6%
[11]
  viability, T/C: 41.2%
[12]
  viability, T/C: 58.5%
[13]
  viability, T/C: 53%
[14]
  viability, T/C: 52.3%
[15]
  viability, T/C: 35.7%
[16]
  viability, T/C: 57.1%
[17]
  viability, T/C: 43%
[18]
  viability, T/C: 43.4%
[19]
  viability, T/C: 47.9%
[20]
  viability, T/C: 42.6%
[21]
  viability, T/C: 38.4%
[22]
  viability, T/C: 42.9%
[23]
  viability, T/C: 62.7%
[24]
  viability, T/C: 28.6%
[25]
  viability, T/C: 48.6%
[26]
  viability, T/C: 56.9%
[27]
  viability, T/C: 62.7%
[28]
  viability, T/C: 41.8%
[29]
  viability, T/C: 54.2%
[30]
  viability, T/C: 53%
[31]
  viability, T/C: 59.5%
[32]
  viability, T/C: 63.1%
[33]
  viability, T/C: 55.8%
[34]
  viability, T/C: 53.9%
[35]
  viability, T/C: 53.1%
[36]
  viability, T/C: 42.4%

## CC1COCCN1c1cc(C2(S(C)(=N)=O)CC2)nc(-c2ccnc3[nH]ccc23)n1 (stereo unspecified) + Cc1cnc(CNC(=O)c2c(=O)c3ccc(N4CCCN(C)CC4)nc3n3c2sc2ccccc23)cn1
Second compound 0.0316 µM
  pIC50: 5.44
Second compound 0.1 µM
  pIC50: 5.06
Second compound 0.316 µM
  pIC50: < 5.00
Second compound 1 µM
  pIC50: < 5.00
Second compound 3.16 µM
  pIC50: < 5.00
Second compound 10 µM
  pIC50: < 5.00
[1]
  viability, T/C: 105%
[2]
  viability, T/C: 88.9%
[3]
  viability, T/C: 84.8%
[4]
  viability, T/C: 56.8%
[5]
  viability, T/C: 54.9%
[6]
  viability, T/C: 41.7%
[7]
  viability, T/C: 91.4%
[8]
  viability, T/C: 90.4%
[9]
  viability, T/C: 83.9%
[10]
  viability, T/C: 65.9%
[11]
  viability, T/C: 72.3%
[12]
  viability, T/C: 45.2%
[13]
  viability, T/C: 89.5%
[14]
  viability, T/C: 92.8%
[15]
  viability, T/C: 80.6%
[16]
  viability, T/C: 60.3%
[17]
  viability, T/C: 55.4%
[18]
  viability, T/C: 53.4%
[19]
  viability, T/C: 86.7%
[20]
  viability, T/C: 82.5%
[21]
  viability, T/C: 69.6%
[22]
  viability, T/C: 65.8%
[23]
  viability, T/C: 84.7%
[24]
  viability, T/C: 83.7%
[25]
  viability, T/C: 65.4%
[26]
  viability, T/C: 83.7%
[27]
  viability, T/C: 104%
[28]
  viability, T/C: 78.2%
[29]
  viability, T/C: 59.3%
[30]
  viability, T/C: 69%
[31]
  viability, T/C: 74.8%
[32]
  viability, T/C: 71.4%
[33]
  viability, T/C: 91.8%
[34]
  viability, T/C: 68.3%
[35]
  viability, T/C: 85.4%
[36]
  viability, T/C: 85.8%
